How the values were obtained:
[1] = tested on: cephalosporin C amidase from Bacillus megaterium (alpha(2) beta(2) oligomer, 722 amino acid primary translation product); test: Inhibitors of purified cephalosporin C amidase; format: biochemical; details: for inhibition of the enzyme (in words): concentration not given; for inhibition at 10 mM (potent inhibitors): inhibitor at 10 mM
Excerpt: (§1) The amino acid sequence of the cephalosporin C amidase enzyme of the present invention, recited further above, was deduced by DNA sequence analysis of the gene coding for the enzyme, and the accuracy of the results have been verified by sequencing three independent isolates from three different strains of Bacillus megaterium. However, since 100% accuracy cannot be totally assured, it has been considered desirable to also identify the cephalosporin C amidase enzyme of the present invention in terms of a number of physical and chemical attributes which it uniquely has. Purification of the enzyme for which such data has been derived is explained in more detail further below. Those data are set out in the following table:
(§2) Assay of activity: incubate 180 μl enzyme with 20 μl 20 mg/ml cephalosporin C; after 3 hours at 37° determine 7-ACA by HPLC assay
(§3) Cultures of B. megaterium were grown as described. The cells were removed from the broth by centrifugation. The broth was brought to 55% saturation with respect to ammonium sulfate and the precipitate removed by centrifugation. The supernatant was then brought to 75% saturated with respect to ammonium sulfate and the cephalosporin C amidase containing precipitate pelleted by centrifugation. This pellet was resuspended in 1/10 of the original culture volume of 15% (w/v) ammonium sulfate, 50 mM sodium phosphate, 5% (w/v) glycerol pH 7.5.
The 10× concentrated enzyme was brought from 15% to 18% w/v ammonium sulfate by addition of saturated ammonium sulfate and filtered through a 0.4 micron filter. Four mls of this was injected onto a Synchrome Synchropak propyl column (25 cm×[…]) which was previously equilibrated with 18% (w/v) ammonium sulfate, 50 mM potassium phosphate pH 7.0. The flow rate was 1 ml/min. For ten minutes after injection the mobile phase composition remained unchanged. From 10 to 40 minutes the mobile phase was changed in a linear gradient to 0% ammonium sulfate, 50 mM sodium phosphate pH 7. From 40-50 minutes the mobile phase composition remained unchanged. Two fractions/min. were collected and assayed for cephalosporin C amidase activity. The activity eluted from 22 to 25 minutes.
The five fractions with the most activity were pooled and concentrated by ultrafiltration in a Centricon 30 (Amicon) to about 50 μl. This concentrated enzyme was injected onto a Zorbox GF 250 (DuPont) column ([…]). The column had been equilibrated and was run in 10% (w/v) ammonium sulfate, 50 mM potassium phosphate pH 7.0 at 1 ml/min. Five fractions/min. were collected. All of the cephalosporin C amidase activity was recovered in two fractions at approximately 9 minutes after injection.
1. The substrate stock solution was prepared by dissolving 20 mg of cephalosporin C in 1 ml of water.
2. Cephalosporin C stock solution (20 μl) was added to the recovered enzyme (180 μl) and the mixture was incubated at 37° C. for 3 hours. Formation of 7-ACA was monitored by HPLC.

[2] = tested on: cephalosporin C amidase from Bacillus megaterium (alpha(2) beta(2) oligomer, 722 amino acid primary translation product); test: Kinetic characterisation of purified cephalosporin C amidase (Km, turnover); format: biochemical
Excerpt: as §1, §2
as §3, with “This pellet was resuspended in 1/10 of the original culture volume of 15% (w/v) ammonium sulfate, 50 mM sodium phosphate, 5% (w/v) glycerol pH 7.5.” left out
2. […] Formation of 7-ACA was monitored by HPLC.

Row | SMILES | inhibition at 10 mM (potent inhibitors) [1] [%] | other results
1 | CC1(C)S[C@@H]2[C@H](N)C(=O)N2[C@H]1C(=O)O [6-APA] |  | inhibition of the enzyme (in words) [1]: NOT inhibited
2 | C[C@@H](N)C(=O)O [D-alanine] | > 90 | 
3 | CC(=O)OCC1=C(C(=O)O)N2C(=O)[C@@H](NC(=O)CCC[C@@H](N)C(=O)O)[C@H]2SC1 [cephalosporin C] |  | Km ([2]; substrate cephalosporin C): 1300 µM
4 | CC1(C)S[C@@H]2[C@H](NC(=O)Cc3ccccc3)C(=O)N2[C@H]1C(=O)O [PenG, penicillin G, reference compound] |  | inhibition of the enzyme (in words) [1]: NOT inhibited
5 | NC(=O)CC[C@H](N)C(=O)O [Glutamine] | > 90 | 
6 | NCC(=O)O [Glycine] | > 90 | 
7 | C[C@H](N)C(=O)O [L-alanine] | > 90 | 
8 | O=C(O)CCCC(=O)Nc1ccc(C(=O)O)cc1 [glutaryl-4-aminobenzoate, reference compound] |  | turnover number, fold higher than with cephalosporin C ([2]; substrate glutaryl-4-aminobenzoate (GAB) compared with cephalosporin C): 20 fold
